Measured values taken from patent US6635771B2, “N-benzhydryl indole compounds” (Wyeth, priority 2001, dated 2003).

Molecular target: T1, cPLA2 (Homo sapiens, UniProt P47712)
T1 sequence (P47712 1-749): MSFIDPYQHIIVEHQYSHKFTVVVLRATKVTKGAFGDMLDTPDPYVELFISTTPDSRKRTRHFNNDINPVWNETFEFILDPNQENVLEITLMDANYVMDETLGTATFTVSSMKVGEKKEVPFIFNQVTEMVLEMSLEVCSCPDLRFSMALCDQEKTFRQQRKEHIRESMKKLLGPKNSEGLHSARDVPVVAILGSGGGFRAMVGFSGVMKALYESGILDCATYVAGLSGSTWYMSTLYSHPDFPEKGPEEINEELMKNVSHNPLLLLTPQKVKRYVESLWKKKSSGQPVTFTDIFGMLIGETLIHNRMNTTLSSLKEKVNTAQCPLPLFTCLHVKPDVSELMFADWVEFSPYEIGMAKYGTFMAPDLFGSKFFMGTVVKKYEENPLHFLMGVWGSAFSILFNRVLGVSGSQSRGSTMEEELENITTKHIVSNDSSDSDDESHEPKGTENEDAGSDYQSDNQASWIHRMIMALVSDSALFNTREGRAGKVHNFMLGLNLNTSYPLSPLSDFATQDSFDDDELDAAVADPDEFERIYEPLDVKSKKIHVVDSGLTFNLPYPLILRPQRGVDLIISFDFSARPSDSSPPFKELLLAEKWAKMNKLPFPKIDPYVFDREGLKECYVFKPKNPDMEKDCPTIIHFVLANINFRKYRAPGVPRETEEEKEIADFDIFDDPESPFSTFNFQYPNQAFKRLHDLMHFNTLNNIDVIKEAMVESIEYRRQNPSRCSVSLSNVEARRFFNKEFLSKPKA
Assay: Coumarine Assay
Format: biochemical
Conditions: 60 μM 7-hydroxycoumarinyl 6-heptenoate substrate, 4 μg cPLA2, pH 7.5, fluorescence ex 360 nm / em 460 nm; read-out: Coumarin IC50

Row | SMILES | IC50
1 | N#Cc1ccc(CS(=O)(=O)NCCc2c(CCOc3ccc(C(=O)O)cc3)c3cc(Cl)ccc3n2C(c2ccccc2)c2ccccc2)cc1 [Example 37, 4-{2-[1-Benzhydryl-5-chloro-2-(2-{[(4-cyanobenzyl)sulfonyl]amino}ethyl)-1H-indol-3-yl]ethoxy}benzoic acid] | 370 nM
2 | O=C(O)c1ccc(OCCc2c(CCNS(=O)(=O)Cc3ccc(S(=O)(=O)N4CCCCC4)cc3)n(C(c3ccccc3)c3ccccc3)c3ccc(Cl)cc23)cc1 [Example 38, 4-(2-{1-Benzhydryl-5-chloro-2-[2-({[4-(1piperidinylsulfonyl)benzyl]sulfonyl}amino)ethyl]-1H-indol-3-yl}ethoxy)benzoic acid] | 500 nM
3 | NS(=O)(=O)c1ccc(CS(=O)(=O)NCCc2c(CCOc3ccc(C(=O)O)cc3)c3cc(Cl)ccc3n2C(c2ccccc2)c2ccccc2)cc1 [Example 39, 4-(2-{2-[2-({[4-(Aminosulfonyl)benzyl]sulfonyl}amino)ethyl]-1-benzhydryl-5-chloro-1H-indol-3-yl}ethoxy)benzoic acid] | 320 nM
4 | CS(=O)(=O)c1ccc(CS(=O)(=O)NCCc2c(CCOc3ccc(C(=O)O)cc3)c3cc(Cl)ccc3n2C(c2ccccc2)c2ccccc2)cc1 [Example 40, 4-(2-{1-Benzhydryl-5-chloro-2-[2-(4-methanesulfonyl-phenylmethanesulfonylamino)-ethyl]-1H-indol-3-yl}-ethoxy)-benzoic acid] | 730 nM
5 | O=C(O)c1ccc(OCCc2c(CCNS(=O)(=O)CCNC(=O)c3ccccc3C(=O)O)n(C(c3ccccc3)c3ccccc3)c3ccc(Cl)cc23)cc1 [Example 48, 2-{[(2-{[(2-{1-benzhydryl-3-[2-(4-carboxyphenoxy)ethyl]-5-chloro-1H-indol-2-yl}ethyl)amino]sulfonyl}ethyl)amino]carbonyl}benzoic acid] | 2350 nM
6 | O=C(O)c1ccc(OCCc2c(CCNS(=O)(=O)Cc3cccnc3)n(C(c3ccccc3)c3ccccc3)c3ccc(Cl)cc23)cc1 [Example 49] | 1100 nM
7 | O=C(O)c1ccc(OCCc2c(CCNS(=O)(=O)Cc3ccncc3)n(C(c3ccccc3)c3ccccc3)c3ccc(Cl)cc23)cc1 [Example 50] | 690 nM
8 | O=C(O)c1ccc(OCCc2c(CCNS(=O)(=O)Cc3ccccn3)n(C(c3ccccc3)c3ccccc3)c3ccc(Cl)cc23)cc1 [Example 51] | 2200 nM
9 | O=C(O)c1ccc(OCCc2c(CCNS(=O)(=O)Cc3ccc([N+](=O)[O-])cc3)n(C(c3ccccc3)c3ccccc3)c3ccc(Cl)cc23)cc1 [Example 54, 4-{2-[1-benzhydryl-5-chloro-2-(2-{[(4-nitrobenzyl)sulfonyl]amino}ethyl)-1H-indol-3-yl]ethoxy}benzoic acid] | 310 nM
10 | O=C(O)c1ccc(OCCc2c(CCNS(=O)(=O)Cc3cccc([N+](=O)[O-])c3)n(C(c3ccccc3)c3ccccc3)c3ccc(Cl)cc23)cc1 [Example 55, 4-{2-[1-benzhydryl-5-chloro-2-(2-{[(3-nitrobenzyl)sulfonyl]amino}ethyl)-1H-indol-3-yl]ethoxy}benzoic acid] | 260 nM
11 | O=C(O)c1ccc(CCCc2c(CCNS(=O)(=O)Cc3ccc(F)cc3)n(C(c3ccccc3)c3ccccc3)c3ccc(Cl)cc23)cc1 [Example 57] | 280 nM
12 | O=C(O)c1ccc(CCCc2c(CCNS(=O)(=O)Cc3ccc(C(F)(F)F)cc3)n(C(c3ccccc3)c3ccccc3)c3ccc(Cl)cc23)cc1 [Example 58, 4-(3-{1-benzhydryl-5-chloro-2-[2-({[4-(trifluoromethyl)benzyl]sulfonyl}amino)ethyl]-1H-indol-3-yl}propyl)benzoic acid] | 360 nM
13 | O=C(O)c1ccc(CCCc2c(CCNS(=O)(=O)Cc3cccc(C(F)(F)F)c3)n(C(c3ccccc3)c3ccccc3)c3ccc(Cl)cc23)cc1 [Example 59, 4-(3-{1-benzhydryl-5-chloro-2-[2-({[3-(trifluoromethyl)benzyl]sulfonyl}amino)ethyl]-1H-indol-3-yl}propyl)benzoic acid] | 290 nM
14 | O=C(O)c1ccc(CCCc2c(CCNS(=O)(=O)Cc3ccccn3)n(C(c3ccccc3)c3ccccc3)c3ccc(Cl)cc23)cc1 [Example 61, 4-{3-[1-benzhydryl-5-chloro-2-(2-{[(2-pyridinylmethyl)sulfonyl]amino}ethyl)-1H-indol-3-yl]propyl}benzoic acid] | 340 nM
15 | O=C(O)c1ccc(CCCc2c(CCNS(=O)(=O)Cc3cccnc3)n(C(c3ccccc3)c3ccccc3)c3ccc(Cl)cc23)cc1 [Example 62, 4-(3-[1-benzhydryl-5-chloro-2-(2-{[(3-pyridinylmethyl)sulfonyl]amino}ethyl)-1H-indol-3-yl]propyl}benzoic acid] | 380 nM
16 | O=C(O)c1ccc(CCCc2c(CCNS(=O)(=O)Cc3ccncc3)n(C(c3ccccc3)c3ccccc3)c3ccc(Cl)cc23)cc1 [Example 63, 4-{3-[1-benzhydryl-5-chloro-2-(2-{[(4-pyridinylmethyl)sulfonyl]amino}ethyl)-1H-indol-3-yl]propyl}benzoic acid] | 300 nM
17 | O=C(O)c1ccc(OCCc2c(CCNS(=O)(=O)Cc3ccc(OC(F)(F)F)cc3)n(C(c3ccccc3)c3ccccc3)c3ccc(Cl)cc23)cc1 [Example 71, 4-{2-[1-Benzhydryl-5-chloro-2-(2-{[(4-trifluorometoxybenzyl)sulfonyl]amino}ethyl)-1H-indol-3-yl]ethoxy}benzoic acid] | 450 nM
18 | O=C(O)c1ccc(OCCc2c(CCNS(=O)(=O)Cc3c(F)cccc3[N+](=O)[O-])n(C(c3ccccc3)c3ccccc3)c3ccc(Cl)cc23)cc1 [Example 72, 4-{2-[1-Benzhydryl-5-chloro-2-(2-{[(2-fluoro-6-nitrobenzyl)sulfonyl]amino}ethyl)-1H-indol-3-yl]ethoxy)benzoic acid] | 280 nM

These reach a lower IC50. Values come first.

Row | IC50 | SMILES
19 | 200 nM | CCN(CC)S(=O)(=O)c1ccc(CS(=O)(=O)NCCc2c(CCOc3ccc(C(=O)O)cc3)c3cc(Cl)ccc3n2C(c2ccccc2)c2ccccc2)cc1 [Example 41, 4-(2-{1-Benzhydryl-5-chloro-2-[2-(4-diethylsulfamoyl-phenylmethanesulfonylamino) -ethyl]-1H-indol-3-yl}-ethoxy)-benzoic acid]
20 | 200 nM | O=C(O)c1ccc(CCCc2c(CCNS(=O)(=O)Cc3cc(Cl)cc(Cl)c3)n(C(c3ccccc3)c3ccccc3)c3ccc(Cl)cc23)cc1 [Example 43, 4-{3-[1-benzhydryl-5-chloro-2-(2-{[(3,5-dichlorobenzyl)sulfonyl]amino}ethyl)-1H-indol-3-yl]propyl}benzoic acid]
21 | 180 nM | O=C(O)c1ccc(CCCc2c(CCNS(=O)(=O)Cc3ccccc3)n(C(c3ccccc3)c3ccccc3)c3ccc(Cl)cc23)cc1 [Example 42, 4-{3-[1-Benzhydryl-5-chloro-2-(2-phenylmethanesulfonylamino-ethyl)-1H-indol-3-yl]-propyl)-benzoic acid]
22 | 180 nM | Cc1ccccc1CS(=O)(=O)NCCc1c(CCCc2ccc(C(=O)O)cc2)c2cc(Cl)ccc2n1C(c1ccccc1)c1ccccc1 [Example 70, 4-{3-[1-Benzhydryl-5-chloro-2-(2-{[(2-methylbenzyl)sulfonyl]amino}ethyl)-1H-indol-3-yl]propyl}benzoic acid]
23 | 160 nM | COc1cccc(CS(=O)(=O)NCCc2c(CCCc3ccc(C(=O)O)cc3)c3cc(Cl)ccc3n2C(c2ccccc2)c2ccccc2)c1 [Example 68, 4-{3-[1-benzhydryl-5-chloro-2-(2-{[(3-methoxybenzyl)sulfonyl]amino}ethyl)-1H-indol-3-yl]propyl}benzoic acid]
24 | 150 nM | O=C(O)c1ccc(CCCc2c(CCNS(=O)(=O)Cc3cccc(Cl)c3)n(C(c3ccccc3)c3ccccc3)c3ccc(Cl)cc23)cc1 [Example 66, 4-{3-[1-benzhydryl-5chloro-2-(2{[(3-chlorobenzyl)sulfonyl]amino}ethyl)-1H-indol-3-yl]propyl}benzoic acid]
25 | 150 nM | Nc1ccccc1CS(=O)(=O)NCCc1c(CCCc2ccc(C(=O)O)cc2)c2cc(Cl)ccc2n1C(c1ccccc1)c1ccccc1 [Example 69, 4-{3-[2-(2-{[(2-aminobenzyl)sulfonyl]amino}ethyl)-1-benzhydryl-5-chloro-1H-indol-3-yl]propyl}benzoic acid]
26 | 140 nM | O=C(O)c1ccc(CCCc2c(CCNS(=O)(=O)Cc3cc(Cl)ccc3Cl)n(C(c3ccccc3)c3ccccc3)c3ccc(Cl)cc23)cc1 [Example 67, 4-{3-[1-benzhydryl-5-chloro-2-(2-{[(2,5-dichlorobenzyl)sulfonyl]amino}ethyl)-1H-indol-3-yl]propyl}benzoic acid]
27 | 130 nM | Cc1cccc(C)c1CS(=O)(=O)NCCc1c(CCCc2ccc(C(=O)O)cc2)c2cc(Cl)ccc2n1C(c1ccccc1)c1ccccc1 [Example 52, 4-{3-[1-benzhydryl-5-chloro-2-(2-{[(2,6-dimethylbenzyl)sulfonyl]amino}ethyl)-1H-indoly-3-yl]propyl}benzoic acid]
28 | 130 nM | O=C(O)c1ccc(CCCc2c(CCNS(=O)(=O)Cc3cccc([N+](=O)[O-])c3)n(C(c3ccccc3)c3ccccc3)c3ccc(Cl)cc23)cc1 [Example 65, 4-{3-[1-benzhydryl-5-chloro-2-(2-{[(3-nitrobenzyl)sulfonyl]amino}ethyl)-1H-indol-3-yl]propyl}benzoic acid]
